Experimental data as given in patent US6432946B1, “3-aminoalkylamino-2H-1,4-benzoxazines and 3-aminoalkylamino-2H-1,4-benzothiazines: dopamine receptor subtype specific ligands” (Neurogen corporation, priority 1997, dated 2002).
Where a name gives a salt, the structure may show the parent alone.

Key:
D2 receptors = biological target: T1, D2 receptors (Chlorocebus aethiops, UniProt P52702); experiment: Assay for D2 receptor binding activity (3H-YM 09151-2 displacement); design: species or system African Green monkey; details: COS cell pellets with recombinant receptor; 0.5 nM 3H-YM 09151-2; test compounds are acid addition salts
T1 construct: expressed in transfected cells; host or cells: COS cells
Experimental: Assay for D2 and D4 Receptor Binding Activity
Pellets of COS cells containing recombinantly produced D2 or D4 receptors from African Green monkey are used for the assays. The sample is homogenized in 100 volumes (w/vol) of 0.05 M Tris HCl buffer at 4° C. and pH 7.4. The sample is then centrifuged at 30,000× g and resuspended and rehomogenized. The sample is again centrifuged as described above and the final tissue sample is frozen until use. The tissue is resuspended 1:20 (wt/vol) in 0.05 M Tris HCl buffer containing 100 mM NaCl.
Incubations are carried out at […] and contain 0.4 ml of tissue sample, 0.5 nM ^3H-YM 09151-2 (Nemonapride, cis-5-Chloro-2-methoxy-4-(methylamino)-N-(2-methyl-2-(phenylmethyl)-3-pyrrolidinyl)benzamide)and the test compound in a total incubation of 1.0 ml. Nonspecific binding is defined as that binding found in the presence of 1 mM spiperone; without further additions, nonspecific binding is less than 20% of total binding. Binding characteristics of examples of the invention for the D2 and D4 receptor subtypes are shown in Table 2 for […].

T1 sequence (P52702 whole entry): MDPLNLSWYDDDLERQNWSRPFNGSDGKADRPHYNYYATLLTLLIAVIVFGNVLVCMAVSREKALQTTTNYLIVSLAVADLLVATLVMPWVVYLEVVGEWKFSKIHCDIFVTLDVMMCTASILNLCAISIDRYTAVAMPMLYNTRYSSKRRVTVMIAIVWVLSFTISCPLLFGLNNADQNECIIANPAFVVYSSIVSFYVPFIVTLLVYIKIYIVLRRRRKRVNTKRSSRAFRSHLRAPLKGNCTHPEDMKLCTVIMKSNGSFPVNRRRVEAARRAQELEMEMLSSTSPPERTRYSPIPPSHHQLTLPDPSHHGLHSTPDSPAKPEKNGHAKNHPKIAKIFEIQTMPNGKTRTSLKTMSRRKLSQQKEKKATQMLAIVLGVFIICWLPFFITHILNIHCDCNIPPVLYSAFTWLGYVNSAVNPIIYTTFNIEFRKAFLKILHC

| Ki (D2 receptors) | melting point | SMILES |
| --- | --- | --- |
| > 1000 nM | – | c1cnc(N2CCN(CCCCNC3=Nc4ccccc4OC3)CC2)nc1 [Compound 1, 3-(1-[4-{(4-Pyrimidin-2-yl)piperazin-1-yl}]butyl) amino-2H-1,4-benzoxazine Difumarate] |
| > 100 nM | – | Fc1cnc(N2CCN(CCNC3=Nc4ccccc4OC3)CC2)nc1 [Compound 6, 3-(1-[2-{(4-[5-Fluoropyrimidin-2-yl])piperazin-1-yl}]ethyl)amino-2H-1,4-benzoxazine fumarate] |
| > 100 nM | – | c1cnc(N2CCN(CCCNC3=Nc4ccccc4SC3)CC2)nc1 [Compound 4] |
| – | 163 to 164 °C | Fc1cnc(N2CCN(CCNC3=Nc4ccccc4OC3)CC2)nc1 (as salt: fumarate) [Compound 6, 3-(1-[2-{(4-[5-Fluoropyrimidin-2-yl])piperazin-1-yl}]ethyl)amino-2H-1,4-benzoxazine fumarate] |
